Key:
Conditions in all cases: binder
[1] = molecular target: CaMK2d (Homo sapiens, UniProt Q13557)
[2] = molecular target: NDR2 (Homo sapiens, UniProt Q9Y2H1)
[3] = molecular target: FGFR2 (Homo sapiens, UniProt P21802)
[4] = molecular target: T1, MAP2K7 (Homo sapiens, UniProt O14733)
T1 sequence (O14733 1-419): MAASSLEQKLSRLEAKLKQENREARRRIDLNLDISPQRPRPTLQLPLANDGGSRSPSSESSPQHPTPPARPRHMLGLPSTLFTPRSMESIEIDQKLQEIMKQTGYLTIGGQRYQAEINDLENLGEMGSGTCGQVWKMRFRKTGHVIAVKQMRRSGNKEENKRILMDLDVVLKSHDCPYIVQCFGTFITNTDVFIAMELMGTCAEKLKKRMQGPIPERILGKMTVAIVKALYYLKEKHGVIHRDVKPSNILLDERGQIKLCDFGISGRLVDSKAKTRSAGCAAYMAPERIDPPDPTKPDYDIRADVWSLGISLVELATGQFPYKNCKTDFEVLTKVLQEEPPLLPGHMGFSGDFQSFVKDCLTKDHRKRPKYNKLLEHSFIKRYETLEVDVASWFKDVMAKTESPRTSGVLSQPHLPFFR

[5] = molecular target: T2, CaMK4 (Homo sapiens, UniProt Q16566)
T2 sequence (Q16566 1-473): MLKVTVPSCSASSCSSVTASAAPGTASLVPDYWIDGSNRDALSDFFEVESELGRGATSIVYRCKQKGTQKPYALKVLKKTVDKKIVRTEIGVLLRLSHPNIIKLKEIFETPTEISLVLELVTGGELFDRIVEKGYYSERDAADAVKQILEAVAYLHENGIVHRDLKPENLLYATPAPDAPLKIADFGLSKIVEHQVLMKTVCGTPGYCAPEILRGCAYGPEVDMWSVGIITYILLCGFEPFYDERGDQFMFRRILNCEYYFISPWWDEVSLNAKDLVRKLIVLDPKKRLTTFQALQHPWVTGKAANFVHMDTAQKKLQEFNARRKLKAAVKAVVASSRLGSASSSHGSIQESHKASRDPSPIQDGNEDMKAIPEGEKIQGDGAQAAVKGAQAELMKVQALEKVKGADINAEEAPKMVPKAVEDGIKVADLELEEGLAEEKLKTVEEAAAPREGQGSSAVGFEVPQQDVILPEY

[6] = molecular target: T3, MER (Homo sapiens, UniProt Q12866)
T3 sequence (Q12866 1-999): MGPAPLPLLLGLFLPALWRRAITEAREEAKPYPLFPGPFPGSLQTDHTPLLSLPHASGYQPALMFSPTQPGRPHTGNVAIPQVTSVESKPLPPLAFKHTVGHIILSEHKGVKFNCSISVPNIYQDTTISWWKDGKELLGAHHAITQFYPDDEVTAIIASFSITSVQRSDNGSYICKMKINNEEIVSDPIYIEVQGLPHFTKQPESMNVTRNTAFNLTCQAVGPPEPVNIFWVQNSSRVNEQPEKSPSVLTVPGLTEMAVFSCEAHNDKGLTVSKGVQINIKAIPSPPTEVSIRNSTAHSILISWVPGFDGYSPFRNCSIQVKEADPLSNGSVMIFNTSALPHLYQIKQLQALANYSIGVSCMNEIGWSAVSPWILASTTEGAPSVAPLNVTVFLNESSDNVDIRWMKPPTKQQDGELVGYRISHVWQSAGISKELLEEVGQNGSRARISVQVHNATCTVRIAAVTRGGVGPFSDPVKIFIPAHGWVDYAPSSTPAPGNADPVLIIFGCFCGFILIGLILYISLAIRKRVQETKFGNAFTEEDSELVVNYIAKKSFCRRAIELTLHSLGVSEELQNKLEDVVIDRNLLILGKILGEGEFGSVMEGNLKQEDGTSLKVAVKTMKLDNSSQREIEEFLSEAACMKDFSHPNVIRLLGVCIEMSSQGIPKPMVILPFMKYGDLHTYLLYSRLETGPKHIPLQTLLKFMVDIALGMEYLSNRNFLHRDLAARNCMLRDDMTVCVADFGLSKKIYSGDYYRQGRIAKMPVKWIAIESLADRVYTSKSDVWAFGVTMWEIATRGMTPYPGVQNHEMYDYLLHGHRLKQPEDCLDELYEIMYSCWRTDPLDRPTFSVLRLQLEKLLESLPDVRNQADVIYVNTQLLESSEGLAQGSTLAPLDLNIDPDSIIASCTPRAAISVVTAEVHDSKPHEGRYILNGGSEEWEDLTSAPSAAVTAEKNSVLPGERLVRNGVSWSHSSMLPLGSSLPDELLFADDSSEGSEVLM

[7] = molecular target: EphA5 (Homo sapiens, UniProt P54756)
Sequence of EphA5 (P54756 whole entry): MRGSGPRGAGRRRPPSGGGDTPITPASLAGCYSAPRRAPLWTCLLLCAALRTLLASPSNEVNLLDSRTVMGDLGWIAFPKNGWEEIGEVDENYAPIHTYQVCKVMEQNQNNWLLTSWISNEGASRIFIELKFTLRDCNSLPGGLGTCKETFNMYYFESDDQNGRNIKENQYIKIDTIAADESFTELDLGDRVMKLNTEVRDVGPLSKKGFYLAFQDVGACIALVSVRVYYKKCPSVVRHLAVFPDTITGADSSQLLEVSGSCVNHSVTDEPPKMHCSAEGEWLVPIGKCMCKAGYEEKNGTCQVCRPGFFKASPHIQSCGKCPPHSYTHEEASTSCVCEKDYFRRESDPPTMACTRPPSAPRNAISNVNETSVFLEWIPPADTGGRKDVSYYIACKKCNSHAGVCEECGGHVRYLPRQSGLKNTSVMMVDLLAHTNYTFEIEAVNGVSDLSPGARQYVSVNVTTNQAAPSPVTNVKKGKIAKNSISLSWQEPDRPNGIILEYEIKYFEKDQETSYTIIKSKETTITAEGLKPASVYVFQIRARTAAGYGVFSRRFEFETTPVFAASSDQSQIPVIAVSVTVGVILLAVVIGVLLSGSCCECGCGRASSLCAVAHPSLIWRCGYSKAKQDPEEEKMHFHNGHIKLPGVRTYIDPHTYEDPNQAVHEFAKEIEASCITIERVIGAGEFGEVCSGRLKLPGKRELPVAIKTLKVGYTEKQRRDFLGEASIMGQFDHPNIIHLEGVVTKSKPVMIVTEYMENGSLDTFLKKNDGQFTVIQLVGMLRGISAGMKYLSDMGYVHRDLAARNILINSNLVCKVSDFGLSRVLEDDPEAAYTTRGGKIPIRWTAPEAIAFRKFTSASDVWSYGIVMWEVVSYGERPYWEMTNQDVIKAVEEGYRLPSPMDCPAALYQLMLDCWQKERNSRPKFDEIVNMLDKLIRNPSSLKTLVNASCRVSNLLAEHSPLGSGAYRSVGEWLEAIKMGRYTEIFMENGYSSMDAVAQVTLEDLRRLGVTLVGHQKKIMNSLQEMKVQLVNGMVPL

[8] = molecular target: NEK7 (Homo sapiens, UniProt Q8TDX7)
Sequence of NEK7 (Q8TDX7 whole entry): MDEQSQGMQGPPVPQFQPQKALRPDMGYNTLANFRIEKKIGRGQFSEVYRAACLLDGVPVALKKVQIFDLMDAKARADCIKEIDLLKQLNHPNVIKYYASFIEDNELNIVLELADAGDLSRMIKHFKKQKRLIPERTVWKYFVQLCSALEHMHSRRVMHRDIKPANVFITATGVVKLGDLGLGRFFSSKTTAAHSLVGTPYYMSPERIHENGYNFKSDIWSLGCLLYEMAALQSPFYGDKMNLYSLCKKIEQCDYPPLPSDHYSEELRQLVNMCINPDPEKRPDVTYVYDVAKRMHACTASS

Sequence of CaMK2d (Q13557 whole entry): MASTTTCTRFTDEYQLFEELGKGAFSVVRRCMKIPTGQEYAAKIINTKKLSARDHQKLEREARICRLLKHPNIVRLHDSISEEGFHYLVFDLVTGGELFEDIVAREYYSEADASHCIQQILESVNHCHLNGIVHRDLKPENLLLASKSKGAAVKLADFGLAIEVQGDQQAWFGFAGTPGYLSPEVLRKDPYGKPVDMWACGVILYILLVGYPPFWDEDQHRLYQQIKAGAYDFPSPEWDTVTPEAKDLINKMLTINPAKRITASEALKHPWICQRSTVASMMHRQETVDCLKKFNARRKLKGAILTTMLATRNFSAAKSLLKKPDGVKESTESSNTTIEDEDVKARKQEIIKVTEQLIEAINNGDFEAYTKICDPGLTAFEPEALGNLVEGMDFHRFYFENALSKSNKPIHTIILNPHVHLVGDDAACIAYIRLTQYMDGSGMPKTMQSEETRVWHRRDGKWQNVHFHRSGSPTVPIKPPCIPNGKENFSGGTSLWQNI
Sequence of FGFR2 (P21802 whole entry): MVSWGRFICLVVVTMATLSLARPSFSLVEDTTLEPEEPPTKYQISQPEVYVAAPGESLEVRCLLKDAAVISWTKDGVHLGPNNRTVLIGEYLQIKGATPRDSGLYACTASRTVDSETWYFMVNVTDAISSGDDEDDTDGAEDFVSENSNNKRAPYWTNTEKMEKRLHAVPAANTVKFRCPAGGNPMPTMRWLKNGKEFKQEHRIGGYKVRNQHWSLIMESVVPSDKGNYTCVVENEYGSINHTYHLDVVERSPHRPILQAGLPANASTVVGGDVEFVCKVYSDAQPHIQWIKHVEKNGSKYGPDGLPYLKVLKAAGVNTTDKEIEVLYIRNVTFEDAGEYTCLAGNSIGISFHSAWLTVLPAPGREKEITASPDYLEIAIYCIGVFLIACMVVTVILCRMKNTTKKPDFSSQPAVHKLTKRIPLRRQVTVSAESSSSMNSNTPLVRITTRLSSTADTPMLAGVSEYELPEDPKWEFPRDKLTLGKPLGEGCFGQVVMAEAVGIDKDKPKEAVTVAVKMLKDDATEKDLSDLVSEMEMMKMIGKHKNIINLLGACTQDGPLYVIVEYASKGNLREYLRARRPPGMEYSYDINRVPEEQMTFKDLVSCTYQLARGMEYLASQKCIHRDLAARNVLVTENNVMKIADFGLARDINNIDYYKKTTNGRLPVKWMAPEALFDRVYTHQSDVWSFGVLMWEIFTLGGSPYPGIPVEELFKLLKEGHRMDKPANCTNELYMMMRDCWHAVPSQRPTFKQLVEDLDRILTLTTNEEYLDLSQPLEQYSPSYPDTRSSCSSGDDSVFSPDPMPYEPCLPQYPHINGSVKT
Sequence of NDR2 (Q9Y2H1 whole entry): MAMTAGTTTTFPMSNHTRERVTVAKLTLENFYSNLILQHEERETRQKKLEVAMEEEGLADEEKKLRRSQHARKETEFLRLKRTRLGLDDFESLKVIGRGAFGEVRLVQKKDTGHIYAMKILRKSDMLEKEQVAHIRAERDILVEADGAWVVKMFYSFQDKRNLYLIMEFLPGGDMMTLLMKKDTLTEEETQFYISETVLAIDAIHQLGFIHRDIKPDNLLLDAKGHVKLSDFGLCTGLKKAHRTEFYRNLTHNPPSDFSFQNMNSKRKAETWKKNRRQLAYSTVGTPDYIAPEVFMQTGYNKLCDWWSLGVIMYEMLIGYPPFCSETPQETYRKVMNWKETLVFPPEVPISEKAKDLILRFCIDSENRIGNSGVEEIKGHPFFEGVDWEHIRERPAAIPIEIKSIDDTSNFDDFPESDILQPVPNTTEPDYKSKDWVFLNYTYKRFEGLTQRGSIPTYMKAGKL

COc1cc(N2CCN(C)CC2)ccc1Nc1ncc2cc(-c3ccc(-c4cccc(C)n4)cc3Cl)c(=O)n(CCCCN)c2n1 [compound 36, 8-(4-Aminobutyl)-6-(2-chloro-4-(6-methylpyridin-2-yl)phenyl)-2-((2-methoxy-4-(4-methylpiperazin-1-yl)phenyl)amino)pyrido[2,3-d]pyrimidin-7(8H)-one]
dTm 36 [1]: -0.2 °C
dTm 36 [2]: 5.2 °C
dTm 36 [3]: 2.9 °C
dTm 36 [4]: 0.0 °C
dTm 36 [5]: 3.2 °C
dTm 36 [6]: -0.2 °C
dTm 36 [7]: 3.5 °C
dTm 36 [8]: -1.4 °C

COc1cc(N2CCOCC2)ccc1Nc1ncc2cc(-c3ccc(-c4cccc(C)n4)cc3Cl)c(=O)n(CCCCN)c2n1 [compound 35, 8-(4-Aminobutyl)-6-(2-chloro-4-(6-methylpyridin-2-yl)phenyl)-2-((2-methoxy-4-morpholino-phenyl)amino)pyrido[2,3-d]pyrimidin-7(8H)-one]
dTm 35 [1]: -0.9 °C
dTm 35 [2]: 6.5 °C
dTm 35 [3]: 2.4 °C
dTm 35 [4]: 2.0 °C
dTm 35 [5]: 5.7 °C
dTm 35 [6]: 0.0 °C
dTm 35 [7]: 4.2 °C
dTm 35 [8]: -2.4 °C

Cc1cccc(-c2ccc(-c3cc4cnc(Nc5ccc(F)c(CO)c5)nc4n(CCCCN)c3=O)c(Cl)c2)n1 [compound 33, 8-(4-Aminobutyl)-6-(2-chloro-4-(6-methylpyridin-2-yl)phenyl)-2-((4-fluoro-3-(hydroxymethyl)phenyl)amino)pyrido[2,3-d]pyrimidin-7(8H)-one]
dTm 33 [1]: -0.2 °C
dTm 33 [2]: 10.4 °C
dTm 33 [3]: 3.3 °C
dTm 33 [4]: 7.7 °C
dTm 33 [5]: 5.2 °C
dTm 33 [6]: 3.1 °C
dTm 33 [7]: 6.8 °C
dTm 33 [8]: -1.4 °C

COc1ccc(O)c(Nc2ncc3cc(-c4ccc(-c5cccc(C)n5)cc4Cl)c(=O)n(CCCCN)c3n2)c1 [compound 34, 8-(4-Aminobutyl)-6-(2-chloro-4-(6-methylpyridin-2-yl)phenyl)-2-((2-hydroxy-5-methoxy-phenyl)amino)pyrido[2,3-d]pyrimidin-7(8H)-one]
dTm 34 [1]: -0.2 °C
dTm 34 [2]: 6.0 °C
dTm 34 [3]: 2.0 °C
dTm 34 [4]: 1.3 °C
dTm 34 [5]: 3.9 °C
dTm 34 [6]: 0.1 °C
dTm 34 [7]: 3.2 °C
dTm 34 [8]: -1.0 °C
